Structures are written as SMILES.

Consider two compounds from patent US4254285A, “1-Hydroxymethyl-1-1-oxo prostane derivatives of the E and F series” (American Cyanamid Company, priority 1979, dated 1981).

Holding throughout (format): in vivo
In assay [1] the test system is continuous respiratory spasm induced by pilocarpine. In words: Bronchodilator Activity (Pilocarpine Assay). The settings on record: Canis lupus familiaris, inhaled or nasal, dog, aerosol, 3.2 mg/ml. As for the experimental part: The PGE compounds of this invention also have bronchodilator activity as determined in a test using dogs anesthetized, artificially ventilated and submitted to a continuous respiratory spasm induced by pilocarpine. Mongrel dogs of either sex weighing between 5 and 10 kg are used. They are premedicated with morphine HCl by subcutaneous injection at 1.5 mg/Kg. An intravenous perfusion of 5% (W/V) chloralose is started 1/2 hour after the morphine injection in such a way that 60 mg/Kg are administered within 15 minutes. After completion, a continuous perfusion of 10 mg/Kg hour is maintained throughout the experiment. The dogs are artificially ventilated by means of a Starling pump at a rate of 20 breaths/minute. The volume is adjusted according to the weight of the animal. [Kleinman and Radford, J. Appl. Physiol., 19, 360 (1964)]. All the measurements are made with the dogs positioned supine in a heated, V-shaped table. Curarization is obtained by succinylcholine chloride using a starting injection of 3 mg/Kg lasting 3 minutes, followed by a continuous perfusion of 0.1 mg/Kg/minute. The respiratory spasm is induced by a starting injection of 400 mcg/Kg of pilocarpine HCl lasting 5 minutes. An increase or decrease in the dose of pilocarpine HCl may occur as a function of the observed effect on airway's resistance. A 15 minute delay is observed before the start of a continuous perfusion of pilocarpine HCl at a dose of 4 mcg/Kg/minute to maintain a constant spasm during the test. A metallic cannula is inserted and fixed, after tracheotomy, into the upper part of the trachea. The two cephalic veins and the two femoral veins are catheterized to inject the various agents. The femoral artery is catheterized to measure the systemic blood pressure. An esophageal balloon (11 cm×2.5 cm) is inserted into the lower third of the oesophagus to measure the endothoracic pressure. The measurement of air flow is made with a […] pneumotachograph connected to the tracheal tube. The transpulmonary pressure is measured as follows: The tracheal cannula is equipped with a stainless steel axial tube (1.5 mm) which is closed at its distal end and projected 2.5 cm beyond the end of the cannula. Three holes with a diameter of one mm are pierced on this latter segment. This tube, which is used to measure the tracheal pressure, is connected to one of the two chambers of a Sanborn 267 B/C differential transducer. The other chamber is connected to the esophageal balloon by means of a polyethylene catheter of the same length and characteristics as the balloon's. The airway's resistance, expressed in cm of water/liter/second, is measured by subtracting from the electrical equivalent of the transpulmonary pressure, a voltage proportional to the flow so as to synchronize the pressure and volume signals on the oscilloscope [Mead and Whittenberger, J. Appl. Physiol, 5, 779 (1953)]. The test compounds are administered by an Aerosol® route. The micronebulizer of a Bird Mark 7 respirator is fitted on the metallic cannula just after the pneumotachograph. The "puff" of the test compound, in Aerosol® is driven by a 2 Kg/cm^2 pressure, allowed into the micronebulizer just during one inspiration cycle. The micronebulizer is fitted on the respiratory tube only during the "puff". It is weighed just before and just after administration to determine the amount of test compound administered.

In assay [2] the test system is bronchospasms elicited by 5-hydroxytryptamine. The experiment in a line: Bronchodilator Activity (Konzett Assay), 5-hydroxytryptamine. The settings on record: Cavia porcellus; guinea pig, intravenous, spasmogen 5-hydroxytryptamine, three logarithmic cumulative doses; read-out: ED50. As for the experimental part:
(§1) The bronchodilator activity of some of the PGE compounds of this invention is determined in guinea pigs against bronchospasms elicited by intravenous injections of 5-hydroxytryptamine, histamine or acetylcholine by the Konzett procedure. [See J. Lulling, P. Lievens, F. El Sayed and J. Prignot, Arzneimittel-Forschung, 18, 995 (1968)].
(§2) In the Table B which follows, bronchodilator activity for representative compounds of this invention against one or more of the three spasmogenic agents is expressed as an ED50 determined from the results obtained with three logarithmic cumulative intravenous doses.

The subject of assay [3] is bronchospasms elicited by histamine. The experiment in a line: Bronchodilator Activity (Konzett Assay), histamine. As to conditions: Cavia porcellus; guinea pig, intravenous, spasmogen histamine, three logarithmic cumulative doses; read-out: ED50. As for the experimental part: as §1, §2
In assay [4] the test system is bronchospasms elicited by acetylcholine. In words: Bronchodilator Activity (Konzett Assay), acetylcholine. As to conditions: Cavia porcellus; guinea pig, intravenous, spasmogen acetylcholine, three logarithmic cumulative doses; read-out: ED50. As for the experimental part:
as §1, §2

The subject of another assay is gastric acid secretion. The experiment in a line: Gastric Acid Secretion in the Dog Fistula. The settings on record: 10 μg/kg I.G.; for cumulative two-hour gastric secretion, acid: n = 6, control 17.2 ± 1.6; for cumulative two-hour gastric secretion, volume: n = 6, control 130 ± 11. As for the experimental part: Three mongrel dogs (20-32 kg) were surgically prepared with stainless steel cannulae. These were inserted into the most dependent portion of the ventral stomach and exteriorized through the abdomen for the collection of gastric secretions. The dogs were trained to stand quietly in a Pavlov support and were conscious during subsequent secretory studies.
^a After a 26hour fast, gastric acid secretion was submaximally
stimulated, beginning 45 minutes after treatment, using a constant
intravenous infusion of histamine acid phosphate ([…]).
^b Each of three dogs was treated six to seven times with vehicle
(control) and one to three times with each compound; n is the number of
experiments conducted with each treatment.
^c Total secretion from 45-120 minutes following intragastric (I.G.)
administration of drugs or vehicle. Mean effects of treatment were
compared to control means by Student's t test. Compound A is […]

In assay [5] the test system is stress-induced (immersion) ulcers. In words: Restraint--Immersion Stress Ulcers in the Rat (Wilson). As for the experimental part:
Male "Sprague--Dawley Derived" rats (Locke--Erickson Laboratories, Maywood, Illinois) weighing 150 to 200 g, are fasted, and provided drinking water for 16 to 19 hours prior to the start of the study. At 0 time the rats are dosed orally with compound or vehicle, (approximately 0.5 ml) and then secured in a Bollman-type restraining cage. Five minutes after dosing, the animals are immersed (tail downward) to "shoulder level" into a 22° C. water bath for 100 minutes. At the end of this period, the animals are decapitated and their stomachs promptly excised with about 5 mm each of esophagus and duodenum.
With a blunt tipped scissor the stomach is opened along the greater curvature, starting at the tip of the rumen through the glandular mucosa into the pylorus and opening the bit of duodenum along its amesenteric border. Debris is removed from stomach by rinsing in saline at room temperature and gently blotting it with gauze or filter paper. The stomach is then spread out, mucosal surface upward on a 3×5 file card or similar material.
With an illuminated magnifier the lesions are counted (for total lesion count) and scored (for weighted score) after the method described by G. Osterloh, et al., Arzneimittel-Forschung, 16 (8a):901910, August 1966. The score for each lesion is given in the following table, modified from the paper.
Very large (area) non-perforating lesions are frequently seen. These are measured as so many 3 mm diameter ulcers and scored as multiples of #7.
Rats were dosed by gavage with compound or vehicle and submerged into a
22° C. water bath for 100 minutes. At the end of this period,
animals were sacrificed and their stomachs removed and scored for ulcers.

[6] abbreviates: 5 min, 5 min. after drug administration.
The mark [7] stands for this setting: 0.5 h, 30 min. after drug administration.
[8] abbreviates: 1 h, 60 min. after drug administration.

Turning to `CCCCC(C)(O)CC=CC1C(O)CC(=O)C1CC=CCCCC(=O)CO` (stereo not drawn) [1,9-dioxo-11α,16-dihydroxy-16-methyl-1-hydroxymethyl-5-cis-13-trans-prostadiene], the inhibition at 3200 µg/mL worked out at 90% in assay [1] (setting [6]), 90% in assay [1] (setting [7]) and 70% in assay [1] (setting [8]). Also, the ED50 is 3.81 µg/kg in assay [2], 3 µg/kg in assay [3] and 6.4 µg/kg in assay [4]. The “cumulative two-hour gastric secretion, acid” value in the assay with gastric acid secretion came out at 7.5 ± 2.1 mEq H^+. The “cumulative two-hour gastric secretion, volume” value in the assay on gastric acid secretion is 76 ± 16 mL. The “% Reduction of ulcer score” value in assay [5] (200 mg/Kg P.O.) worked out at 85%; in assay [5] (500 mg/Kg P.O.), 95%.
For the compound `CCCCC(C)(O)CC=CC1C(O)CC(=O)C1CCCCCCC(=O)CO` (centres unmarked), the inhibition at 3200 µg/mL came out at 90% in assay [1] (setting [6]), 70% in assay [1] (setting [7]) and 45% in assay [1] (setting [8]). Also, the results for the ED50 in assay [2], in assay [3] and in assay [4] were 3 µg/kg, 0.943 µg/kg and 4.7 µg/kg, respectively. Also, the “cumulative two-hour gastric secretion, acid” value in the assay on gastric acid secretion stood at 6.9 ± 2.8 mEq H^+. In addition, the “cumulative two-hour gastric secretion, volume” value in the assay with gastric acid secretion amounted to 59 ± 19 mL. For the same compound, the “% Reduction of ulcer score” value is recorded as 62% in assay [5] (3 mg/Kg P.O.); 85% in assay [5] (16 mg/Kg P.O.); 82% in assay [5] (80 mg/Kg P.O.); 67% in assay [5] (200 mg/Kg P.O.); 82% in assay [5] (500 mg/Kg P.O.).

As a reminder, the inhibition is the percentage by which the read-out fell short of the control. Read a high inhibition as a response far below the control. Usually ED50 stands for the dose at which the effect has come halfway, by size or by number of responders.
